Data as given in patent US20120046273A1, “COMPOUNDS AND COMPOSITIONS FOR COGNITION-ENHANCEMENT, METHODS OF MAKING, AND METHODS OF TREATING” (MITHRIDION, INC., priority 2009, published 2012).

Tests used:
[1] = biological target: T1, human muscarinic M1 receptors (Homo sapiens, UniProt P11229); test: Inositol phosphate production in huM1/A9L cells (IPOne TR-FRET); assay type: cell-based
T1 construct: expressed in transfected cells; host or cells: A9L cells (gift from Professor W Messer)
T1 sequence (P11229 1-460): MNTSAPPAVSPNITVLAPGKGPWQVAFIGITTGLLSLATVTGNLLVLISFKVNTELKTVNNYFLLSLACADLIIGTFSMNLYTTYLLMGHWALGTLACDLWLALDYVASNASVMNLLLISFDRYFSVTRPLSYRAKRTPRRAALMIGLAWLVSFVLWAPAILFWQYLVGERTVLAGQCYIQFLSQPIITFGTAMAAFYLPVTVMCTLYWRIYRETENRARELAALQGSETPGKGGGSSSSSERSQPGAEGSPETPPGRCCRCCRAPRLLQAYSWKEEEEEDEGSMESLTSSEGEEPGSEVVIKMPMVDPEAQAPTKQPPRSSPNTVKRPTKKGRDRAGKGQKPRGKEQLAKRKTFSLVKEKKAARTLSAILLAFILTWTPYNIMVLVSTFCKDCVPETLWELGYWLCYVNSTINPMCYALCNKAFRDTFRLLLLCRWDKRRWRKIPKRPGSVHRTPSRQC
Description: (§1) Muscarinic M1 and M3 agonist activity was evaluated by measuring the stimulation of inositol phosphate (IP) production in the presence of lithium chloride from A9L cells transfected with expression plasmids containing human muscarinic M1 and M3 receptors, respectively. The cell lines were a gift from Professor W Messer, and the methods were as described in Tejada F R et al. J. Med. Chem. 2006; 49: 7518-31 except that the assay was scaled down to run in 384 well plates, and IP was measured in the cell lysates using the non-isotopic IPOne TR-FRET assay (CIS-BIO, Inc).
(§2) Cells were grown to 90% confluence in 384 well hi-base plates (Greiner Bio-One), compounds were added at suitable concentrations in growth medium containing 10 mM LiCL, buffered with an extra 10 mM HEPES (pH7.4), and incubated for 60 minutes at 37° C. Cells were lysed and assayed for IP following the manufacturer's instructions.
(§3) The value for a full agonist is 100%, while partial agonists give values below 100%.

[2] = biological target: T2, human muscarinic M3 receptors (Homo sapiens, UniProt P20309); test: Inositol phosphate production in huM3/A9L cells (IPOne TR-FRET); assay type: cell-based
T2 construct: expressed in transfected cells; host or cells: A9L cells (gift from Professor W Messer)
Description: as §1, §2, §3

[3] = tested on: hippocampal inositol phosphate signaling pathway; test: In vivo tissue inositol phosphate signaling pathway activation, hippocampus; parameters: species or system rat; settings: normal rats, dose-dependent in the dose range 0.03 mg/kg to at least 3 mg/kg
Description: Experimental compounds or drug substances were administered using standard techniques to Long Evans Hooded rats weighing 225 to 350 grams, and which had been pretreated with a subcutaneous injection of lithium chloride at a suitable dose between 3 and 10 mmoles per kg. At suitable times the animals were briefly anesthetized using 5% isoflurane and euthanized by decapitation. The brains and submaxillary salivary glands were rapidly dissected out, and the hippocampuses were dissected from the brains. The dissected tissues were homogenized in a suitable volume of ice-cold phosphate-buffered saline containing 10 mM lithium chloride, pH7.4, using a tissue homogenizer, and used immediately or frozen in aliquots at −80degC. for future use. The concentration of inositol-1-phosphate was determined in the homogenates using the IPOne TR-FRET assay (CisBio cat no 621PAPEB), following the manufacturer's instruction

[4] = tested on: apomorphine induced climbing; test: Apomorphine induced climbing model of psychosis; assay type: in vivo, CD-I mice
How it was run: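 CD-I mice (1-2 months) dosed subcutaneously under isoflurane with compound or PBS vehicle (PBS or 96% PBS/4% hydroxypropyl-beta-cyclodextrin, 5 ml/kg), then 2 mg/kg apomorphine 5 min later. Climbing (≥3 paws off ground) in wire mesh cylinders scored for 1 min every 5 min over 60 min after dosing.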

[5] = tested on: pooled male Sprague-Dawley rat liver microsomes; test: Metabolism by rat liver microsomes; assay type: in vitro ADME; settings: 6 hours incubation
Description: (§4) Compounds were incubated with pooled male Sprague-Dawley rat liver microsomes (BD Biosciences, #452501) and an NADP-regenerating system in a phosphate buffer (pH 7.4) for a total of 6 hours. Aliquots were removed every 2 hours, and 1% formic acid was added to halt the reaction. Samples were centrifuged, filtered through 0.2 micron spinfilter and the amount of each compound in the supernatants was quantitated using LC/MS/MS.

[6] = rat, in vivo, po, 1 hour
[7] = tested on: A-beta 1-40 and A-beta 1-42; test: A-beta in hippocampal microdialysate; assay type: in vivo, Tg-2576 transgenic mice; settings: Tg-2576 mice
Excerpt: These mice have high concentrations of A-beta in their brain tissue, thought to be the cause of neuron death in Alzheimer's disease, and accumulate amyloid plaques, recapitulating one of the hallmark pathological features of Alzheimer's disease.

[8] = tested on: anesthetized normal rats; test: In vivo measurement of salivation; parameters: species or system rat; settings: anesthetized normal rats, dose-dependent between about 0.1 mg/kg and 1 mg/kg
Description: Suitable doses of test compounds or drug substances were administered using standard techniques to Long Evans Hooded rats weighing 225 to 350 grams, or CD-1 mice weighing 30 to 50 grams, which had been anesthetized using 2-3.5%% of isoflurane in oxygen. The animals were placed slightly head-down on an inclined, heated ramp. Rectal temperature was monitored using a thermocouple and the temperature of the heating pad was adjusted manually to maintain normal body temperature. Saliva was collected from the mouth by absorption onto pre-weighed slips of filter paper. The filter paper was changed periodically and the amount of saliva was measured by weighing the filter paper slips

[9] = tested on: pooled male human liver microsomes; test: Metabolism by human liver microsomes; assay type: in vitro ADME; settings: 6 hours incubation
Description: as §4, with “human” for “Sprague-Dawley rat”, “#452172)” for “#452501)”

[10] = percentage of maximal stimulation by carbachol

T2 sequence (P20309 whole entry): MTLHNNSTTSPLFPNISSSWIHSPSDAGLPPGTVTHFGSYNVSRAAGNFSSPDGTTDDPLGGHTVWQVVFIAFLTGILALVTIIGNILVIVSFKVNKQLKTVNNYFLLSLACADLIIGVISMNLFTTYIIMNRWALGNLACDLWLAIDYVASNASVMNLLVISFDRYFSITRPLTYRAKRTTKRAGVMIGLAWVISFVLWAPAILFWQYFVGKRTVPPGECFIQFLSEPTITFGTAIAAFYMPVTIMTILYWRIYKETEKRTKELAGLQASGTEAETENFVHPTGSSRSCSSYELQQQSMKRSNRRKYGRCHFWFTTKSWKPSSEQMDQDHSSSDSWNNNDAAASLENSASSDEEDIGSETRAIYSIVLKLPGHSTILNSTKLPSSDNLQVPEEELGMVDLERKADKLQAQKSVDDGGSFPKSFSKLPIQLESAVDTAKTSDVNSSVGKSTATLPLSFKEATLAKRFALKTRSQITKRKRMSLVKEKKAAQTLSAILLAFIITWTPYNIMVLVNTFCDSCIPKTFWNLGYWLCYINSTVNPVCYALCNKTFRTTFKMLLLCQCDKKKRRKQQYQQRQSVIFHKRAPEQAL

With `Cc1noc(C2CCCNC2)n1` (racemic) [Compound 82, 3-Methyl-5-(piperidin-3-yl)-1,2,4-oxadiazole] the “huM1/A9L Smax” value [1, 10] was 108%, the “huM1/A9L ED50 relative to CCh” value ([1]; potency relative to carbachol) was “+ (potency 2-10x CCh)” and the “huM3/A9L Smax” value [2, 10] was 54%. The “huM3/A9L ED50 relative to CCh” value ([2]; potency relative to carbachol) was “+/− (potency 0.5-2x CCh)”, the “hippocampal IP response” value [3] was “causes an increase in the hippocampal IP response” and the “Climbing Mean” value ([4]; 82 (0.1 mg/kg) + APO) was 8.9 s. For the same compound, the “Climbing Mean” value ([4]; 82 + APO + N-Methyl Scopolamine (0.3 mg/kg)) was 12.3 s, the “Climbing Mean” value ([4]; 82 + APO + scopolamine (0.3 mg/kg)) was 47.0 s and the “activity in the apomorphine induced climbing model” value ([4]; mice, sc) was “highly active and highly potent”. The “potency in inhibiting climbing compared with haloperidol” value ([4]; mice, sc) was “equipotent to haloperidol”, the “extent of metabolism in rat liver microsomes” value [5] was “far more stable than compounds 126 and 127” and the Brain/plasma ratio [6] was 2.38. The “reduction of the concentration of A-beta 1-40” value [7] was “approximately 40%”, the “reduction of the concentration of A-beta 1-42” value [7] was “approximately 40%” and the salivation side effect [8] was “causes salivation”. The “extent of metabolism in human liver microsomes” value [9] was “metabolized significantly less in human liver microsomes than in rat liver microsomes”.
